The values that follow come from patent publication US20140200136A1, “Agricultural mixtures comprising arylquinazolinone compounds” (BASF SE, priority 2011, published 2014).

Format in all cases: cell-based
Assay [1] has as its system Pyricularia oryzae. The note with it: single active.
Assay [2] relates to Septoria tritici. Description: Activity against leaf blotch on wheat caused by Septoria tritici (Septtr), microtiter plate test. The conditions noted are these: single active.
For assay [3], the system named is Leptosphaeria nodorum. Description: Activity against wheat leaf spots caused by Leptosphaeria nodorum (Leptno), microtiter plate test. The conditions noted are these: single active, 7 days after inoculation.

Like-named read-outs stand apart in the source and are kept apart here.

In assay [1] (16 ppm), `O=C(Nc1ccccc1-c1ccc(Cl)cc1)c1cccnc1Cl` [Boscalid] displayed an Observed efficacy of 8.
For `Cc1cc(F)c(-n2cnc3ccc(F)cc3c2=O)cc1[S+]([O-])CC(F)(F)F` (stereo not drawn) [CE.I.31, 6-Fluoro-3-[2-fluoro-4-methyl-5-2(2,2,2-trifluoroethanesulfinyl)-phenyl]-3H-quinazolin-4-one], the Observed efficacy was 19 in assay [2] (63 ppm); 8 in assay [1] (1 ppm); 11 in assay [1] (4 ppm); 16 in assay [1] (63 ppm); 19 in assay [3] (concentration 63 ppm).
`COC(=O)Nc1nc2ccccc2[nH]1` [Carbendazim] had an Observed efficacy in assay [1] (0.25 ppm) of 19.
On the same count and under the same terms, the same measure for `N#Cc1c(Cl)c(Cl)c(Cl)c(C#N)c1Cl` [Chlorothalonil]: 30.
Regarding `Cc1ccc(-c2c(Cl)nc(C#N)n2S(=O)(=O)N(C)C)cc1` [Cyazofamid], the Observed efficacy in assay [1] (1 ppm) turned out to be 10.
On to `CO/N=C(/C1=NOCCO1)c1ccccc1Oc1ncnc(Oc2ccccc2Cl)c1F` [Fluoxastrobin], for which the Observed efficacy in assay [2] (0.25 ppm) is on record as 58.
As for `Cn1cc(C(=O)Nc2ccccc2-c2cc(F)c(F)c(F)c2)c(C(F)F)n1` [Fluxapyroxad], in assay [2] (0.063 ppm), the Observed efficacy is reported as 58.
The compound `CO/C=C(/C(=O)OC)c1ccccc1COc1cccc(C(F)(F)F)n1` [Picoxystrobin] displayed an Observed efficacy in assay [1] (0.016 ppm) of 19.
In assay [1] (0.004 ppm), `COC(=O)N(OC)c1ccccc1COc1ccn(-c2ccc(Cl)cc2)n1` [Pyraclostrobin] yielded an Observed efficacy of 32.
In assay [1] (0.016 ppm), `CON=C(C(=O)OC)c1ccccc1CON=C(C)c1cccc(C(F)(F)F)c1` [Trifloxystrobin] registered an Observed efficacy of 26.
In assay [3] (concentration 4 ppm), “zinc propylenebis(dithiocarbamate) polymer [Propineb, reference compound]” registered an Observed efficacy of 57.
